Test results from US12508251B2, “CD4 mimic compound with anti-HIV activity” (NATIONAL UNIVERSITY CORPORATION KUMAMOTO UNIVERSITY, priority 2019, dated 2025).
Entries after “also recorded” stand apart in the source; their conditions may differ. Where two headings read alike, the source gives them in different places.

Assays:
[1] = Cytotoxicity (CC50) in TZM-bl cells, luminescence (CTG); assay type: cell-based; details: human
Source text: (§1) In this Example, TZM-bl cells (available from NIH AIDS Reagent Program ([…].org/Index.cfm)) were used for individual evaluations. TZM-bl cells have CD4/CCR5/CXCR4 on the surface and express luciferase when infected with HIV. In this manner, TZM-bl cells serve as indicator cells. In the cells, β-galactosidase gene linked to HIV-1 LTR sequence is integrated. When the cells are infected with HIV-1, the tat gene of HIV-1 expresses a transcriptional activator Tat, which acts on the promoter region of LTR to express β-galactosidase. When a substrate is added, enzymatic cleavage occurs to produce galactose and luciferin. Luciferin is oxidized by luciferase to generate chemiluminescence, which can be detected by a luminometer to determine the number of cells infected with HIV-1. […] After each compound was serially diluted, TZM-bl cells (1×10^4) were added, cultured for 48 hours and collected. A Luc reporter reagent was added and the amount of luminescence (reagent: CTG) was measured […].

[2] = Stability on incubation with human liver microsomes, HPLC; assay type: in vitro ADME; details: 60 minutes at 37° C., NADPH, NaPB pH 7.4
Procedure: More specifically, TKB-002 trifluoroacetate was dissolved in a 100 mM sodium phosphate buffer (NaPB, pH 7.4) to obtain a 0.3 mM solution. This solution (183 μL) was mixed with 20 mM NADPH (2 μL) in 100 mM NaPB (pH 7.4), and 5 μL of 20 mg/mL human liver microsome (Human Microsomes, 50 Donors (ThermoFisher Scientific, cat #: HMMCPL, Lot #: PL050E-A)) solution. After the mixture was pre-incubated at 37° C. for 5 minutes, 20 mM NADPH solution (10 μL) was added to the mixture, which was incubated while gently stirring for 60 minutes at 37° C.
Subsequently, 200 μL of ethyl acetate was added to the mixture to terminate the reaction. The mixture was stirred by a vortex mixer and centrifuged at 3,000 rpm for 5 minutes. The supernatant was filtered and ethyl acetate was removed with nitrogen gas.
To the mixture, 50 μL of MeCN containing 0.1% TFA was added and analysis was carried out by HPLC in the same conditions as in Reference Example 1 and Example 4.

HIV isolate (KP5mvcR) = assay: microbe, parasite or virus in culture; assay type: cell-based, HIV-1; details: for SI (selectivity index): CC50/IC50, TZM-bl cells, KP-5mvcR; for IC50: read-out: IC50 KP-5mvcR
Source text: In this Example, TZM-bl cells (available from NIH AIDS Reagent Program (https://www.aidsreagent.org/Index.cfm)) were used for individual evaluations. TZM-bl cells have CD4/CCR5/CXCR4 on the surface and express luciferase when infected with HIV. In this manner, TZM-bl cells serve as indicator cells. In the cells, β-galactosidase gene linked to HIV-1 LTR sequence is integrated. When the cells are infected with HIV-1, the tat gene of HIV-1 expresses a transcriptional activator Tat, which acts on the promoter region of LTR to express β-galactosidase. When a substrate is added, enzymatic cleavage occurs to produce galactose and luciferin. Luciferin is oxidized by luciferase to generate chemiluminescence, which can be detected by a luminometer to determine the number of cells infected with HIV-1.
2) IC50 (Calculation of Anti-HIV Activity)
After each compound was serially diluted, TZM-bl cells (1×10^4) and 100TCID50 of HIV isolate (KP5mvcR) were added, and then, cultured for 48 hours. Thereafter, the cells were collected and a Luc reporter reagent was added. The amount of luminescence was measured to calculate the inhibition rate of infection (IC50). The HIV isolate (KP5mvcR) is an MVC resistant HIV clone, which was obtained by subjecting a clinical isolate KP-5 (YTA) to passage culture with PM1 CCR5 cells in the presence of MVC over 48 passages to obtain MVC resistant KP-5Env, which was inserted into NL43 vector (Yoshimura K, et al., J. Gen. Virol., 95, 1816-1826, 2014).

[3] = Blood half-life after intravenous injection, blood concentration by HPLC; assay type: in vivo, Macaque monkey
Procedure: A Macaque monkey (MM616, body weight 8.00 kg) was intravenously injected with YIR-821 at a dose of 192 mg (10.1 mg/mL). A blood sample was taken from the monkey, 21, 39, 63, 91, 98, 113, 143, 201, 328 and 453 minutes later, and the concentration of YIR-821 in the blood was measured by HPLC.
HPLC conditions are as follows. • Measuring device: JASCO PU-2089 plus (JASCO Corporation, Ltd.) • Column: Cosmosil 5C18-ARII column (4.6×250 mm, Nacalai Tesque, Inc.) • Solvent A: H2O containing 0.1% (v/v) TFA • Solvent B: CH3CN containing 0.1% (v/v) TFA • Gradient: 20-50% solvent B in solvent A, 30 minutes • Flow rate: 1 cm^3/min • Detection: Detection at 260 nm-UV
In the same manner as in Reference Example 1, Macaque monkey (MM616, body weight 8.78 kg) was intravenously injected with TKB-002 trifluoroacetate obtained in Example 2 at a dose of 23.4 μmol (33.2 mg/20 mL). A blood sample was taken before, during and after administration (at a time point of 10 minutes, 37 minutes, 1 hour, 2.5 hours, 4.5 hours, 6.5 hours and 24 hours after administration). Blood concentration was measured by HPLC in the same conditions as in Reference Example 1.

TZM-bl cells = assay: Cytotoxicity (CC50) in TZM-bl cells, luminescence (CTG); assay type: cell-based; details: TZM-bl cells, cultured for 48 hours
Source text: as §1

[4] = In vitro decomposition releasing the alkyl or PEG chain in PBS; assay type: physicochemical; details: PBS of pH7.4 at 37° C.
Procedure: The compound obtained in Example 5 (YIS-527) has an alkyl chain bound to a side chain of YIR-821 via a —C(═O)O— group, and it is assumed that the compound is hydrolyzed in vitro and in vivo. Accordingly, in this Example, an alkyl chain released in vitro was measured.
With respect to compound (YIS-540) having a PEG chain bound to a side chain of YIR-821 via a —C(═O)O— group obtained in Example 6, the PEG chain released in vitro was measured in the same manner as in Example 7.

[5] = Human immunodeficiency virus 1, TZM-bl, 48 h
[6] = TZM-bl cells, 100TCID50 of KP5mvcR, 48 hours

| SMILES | CC50 at 48 h [1] [µM] | SI (selectivity index) (HIV isolate (KP5mvcR)) | IC50 (HIV isolate (KP5mvcR); [5]) [µM] | further results |
| --- | --- | --- | --- | --- |
| COCCOCCOCCOCCOCCOCCOCCOCCOCCOCCOCCOCCNC(=O)CCC(=O)N[C@@H](CCCNC(=N)N)C(=O)NCCN1CCC(NC(=O)C(=O)Nc2ccc(Cl)cc2)CC12CCCCC2 (stereo partly drawn) [TKB-002, N^1-((2S)-1-((2-(4-(2-((4-chlorophenyl)amino)-2-oxoacetamido)-1-azaspiro[5.5]undecan-1-yl)ethyl)amino)-5-guanidino-1-oxopentane-2-yl)-N^4-(2,5,8,11,14,17,20,23,26,29,32,35-dodecaoxaheptatriacontan-37-yl)succinamide] | > 100 | >1,000 | < 0.1 | stability in the presence of human liver microsomes (HPLC peak intensity) [2]: the intensity of the peak was the same as before incubation; also recorded: stable even in the presence of human liver microsomes; blood half-life relative to YIR-821 ([3]; Macaque monkey, intravenous injection): 3.48 times; half-life ([3]; blood, 23.4 μmol, Macaque monkey MM616, intravenous injection): 1.8 h |
| CC1(C)CC(NC(=O)C(=O)Nc2ccc(Cl)cc2)CC(C)(C)N1 [NBD-556, reference compound] |  |  |  | CC50 (TZM-bl cells): 177 ± 9.5 µM; IC50 (HIV isolate (KP5mvcR); [6]): 0.27 ± 0.052 µM |
| CCCCCCCCCCCCCCCCNC(=O)CCC(=O)OC(CCCNC(=N)N)C(=O)NCCN1CCC(NC(=O)C(=O)Nc2ccc(Cl)cc2)CC12CCCCC2 (stereo not drawn) [YIS-527, 1-((2-(4-(2-((4-chlorophenyl)amino)-2-oxoacetamido)-1-azaspiro[5.5]undecan-1-yl)ethyl)amino)-5-guanidino-1-oxopentan-2-yl 4-(hexadecylamino)-4-oxobutanoate] | 17 ± 0.22 | 14 | 1.2 ± 0.11 | decomposition releasing the alkyl or PEG chain [4]: decomposition reaction was observed |
| COCCOCCOCCOCCOCCOCCOCCOCCOCCOCCOCCOCCOCCOCCOCCOCCOCCOCCOCCOCCOCCOCCOCCOCCNC(=O)CCC(=O)N[C@@H](CCCNC(=N)N)C(=O)NCCN1CCC(NC(=O)C(=O)Nc2ccc(Cl)cc2)CC12CCCCC2 (stereo partly drawn) [TKB-003] |  |  |  | CC50 (TZM-bl cells): 40 ± 14 µM; IC50 (HIV isolate (KP5mvcR); [6]): < 0.1 µM |
| COCCOCCOCCOCCOCCNC(=O)CCC(=O)N[C@@H](CCCNC(=N)N)C(=O)NCCN1CCC(NC(=O)C(=O)Nc2ccc(Cl)cc2)CC12CCCCC2 (stereo partly drawn) [TKB-001, N^1-((2S)-1-((2-(4-(2-((4-chlorophenyl)amino)-2-oxoacetamido)-1-azaspiro[5.5]undecan-1-yl)ethyl)amino)-5-guanidino-1-oxopentan-2-yl)-N4-(2,5,8,11,14-pentaoxahexadecan-16-yl)succinamide] | > 100 | >769 | 0.13 ± 0.026 |  |
| COCCOCCOCCOCCOCCNC(=O)CCC(=O)OC(CCCNC(=N)N)C(=O)NCCN1CCC(NC(=O)C(=O)Nc2ccc(Cl)cc2)CC12CCCCC2 (stereo not drawn) [YIS-540, 1-((2-(4-(2-((4-chlorophenyl)amino)-2-oxoacetamido)-1-azaspiro[5.5]undecan-1-yl)ethyl)amino)-5-guanidino-1-oxopentan-2-yl 18-oxo-2,5,8,11,14-pentaoxa-17-azahenicosan-21-oate] | 109 ± 8.2 | 6412 | 0.017 ± 0.011 | decomposition releasing the alkyl or PEG chain [4]: decomposition reaction was observed |
| O=C1Nc2ccc(Cl)cc2[C@@](C#CC2CC2)(C(F)(F)F)O1 [EFV, efavirenz, reference compound] |  | 6,829 | 0.0041 ± 0.00099 | CC50 at 48 h ([1]; TZM-bl cells, cultured for 48 hours, read-out: CC50): 28 ± 3.4 µM |
